From EPA's ToxValDB 9.5
Several values for one entry are separate records, joined by “and”; a condition that tells them apart may be missing. Equal values may be shown once.

Test system: Rattus norvegicus
Details: for LD50 / LC50: acute
[1] = subchronic, duration: 13 weeks, oral, gavage, Sprague-Dawley
[2] = reproduction developmental, duration: 7 days, oral, gavage, F, CD Strain from Charles River
[3] = subchronic, duration: 90 days, oral, diet

CCCCCCC(C)(C)C(=O)OCC1CO1 (stereo not drawn) [Glycidyl neodecanoate]
LD50 (dermal, Wistar): > 4000 mg/kg
LD50 (oral, gavage, Wistar): > 10000 mg/kg

CC(C)CCCCCCCOC(=O)CCCCCCCC(=O)OCCCCCCCC(C)C [Diisodecyl azelaate]
LD50 (oral, gavage, Wistar): > 2000 mg/kg

O=S(=O)([O-])CCO.[Na+] [Sodium 2-hydroxyethanesulfonate]
LD50 (oral, gavage, Wistar): > 5000 mg/kg

CCCCCCCC/C=C\CCCCCCCC(=O)OC[C@@H](OC(=O)CCCCCCC/C=C\CCCCCCCC)[C@H]1OC[C@H](O)[C@H]1OC(=O)CCCCCCC/C=C\CCCCCCCC [Sorbitan trioleate]
LD50 (oral, gavage, Wistar): > 39800 mg/kg

CC(C)(C)c1cc(CCC(=O)NNC(=O)CCc2cc(C(C)(C)C)c(O)c(C(C)(C)C)c2)cc(C(C)(C)C)c1O
LD50 (oral): > 7000 mg/kg
NOAEL (short-term, duration: 28 days, oral, diet): > 10000 ppm
NOAEL (subchronic, duration: 3 months, oral, diet): 38.4 mg/kg-day

CC(C)(CO)CO [2,2-Dimethylpropane-1,3-diol]
LD50 (oral): 3200 mg/kg
NOAEL (reproduction developmental, oral, Sprague-Dawley, generation: F0): 1000 mg/kg-day
NOAEL (reproduction developmental, oral, Sprague-Dawley, generation: F1): 1000 mg/kg-day
NOAEL (reproduction developmental, oral, gavage, Sprague-Dawley): 100 mg/kg-day
NOAEL (short-term, duration: 2 weeks, oral, gavage, Wistar): 1000 mg/kg-day

CCCCN(CCCC)c1ccc(C(=O)c2ccccc2C(=O)O)c(O)c1 [2-[4-(Dibutylamino)-2-hydroxybenzoyl]benzoic acid]
LD50 (dermal, Sprague-Dawley): > 2000 mg/kg
LD50 (oral, gavage, Sprague-Dawley): > 5000 mg/kg
LOAEL (reproduction developmental, duration: 21 weeks, oral, gavage, M, Sprague-Dawley): 250 mg/kg-day
LOAEL (reproduction developmental, duration: 21 weeks, oral, gavage, Sprague-Dawley, generation: F1): 250 mg/kg-day
LOAEL (short-term, duration: 28 days, oral, gavage, M, Sprague-Dawley): 1000 mg/kg-day
LOAEL [1]: 250 mg/kg-day
NOAEL [1]: 50 mg/kg-day

Cc1ccc(C)c(O)c1C [2,3,6-Trimethylphenol]
LD50 (oral, gavage): > 2000 mg/kg

NCCCCCCN [1,6-Hexanediamine]
LC50 (inhalation, Crl): > 0.95 µg/mL
LD50 (oral, gavage, Crl:CD(SD)): 1130 mg/kg and 792 mg/kg
LOAEL (developmental, duration: 7 days, oral, gavage, CD Strain from Charles River): 184 mg/kg-day
NOAEL (reproduction developmental, duration: 40 weeks, oral, diet, Charles River COBS CD, Portage Michigan): 150 mg/kg-day
LOAEL [2]: 184 mg/kg-day
NOAEL [2]: 112 mg/kg-day
NOAEL (subchronic, duration: 13 weeks, Inhalation, Crl:CD(SD)): 12.8 mg/m3

CCCCCCCCCCc1cc(Oc2ccc(S(=O)(=O)O)cc2)ccc1S(=O)(=O)O [Decyl(sulfophenoxy)benzenesulfonic acid]
LD50 (oral, gavage, Fischer 344): ≥ 1000 mg/kg and ≤ 2000 mg/kg
LD50 (oral, gavage, Sprague-Dawley): 3010 mg/kg

CCCCCCC(=O)OCCOCCOCCOCCOC(=O)CCCCCC [Tetraethylene glycol diheptanoate]
LD50 (oral, gavage, ChR:CD): > 25000 mg/kg
LD50 (oral, gavage, ChRCD): > 25000 mg/kg
LD50 (oral, gavage, Crl:CD(SD)): > 24500 mg/kg
LD50 (oral, gavage, Wistar): > 2000 mg/kg
LOAEL (short-term, duration: 4 weeks, inhalation, Wistar): 1.1 mg/L
NOAEL (short-term, duration: 28 days, oral, gavage, Wistar): 1000 mg/kg-day

CC(C)(c1ccccc1)c1ccc(Nc2ccc(C(C)(C)c3ccccc3)cc2)cc1
LC50 (oral, gavage): > 10000 mg/kg

OCCCO [1,3-Propanediol]
LD50 (oral, gavage, Wistar): 15.8 mg/kg

CCC(C)(N)C#N (stereo not drawn) [2-Amino-2-methyl-butyronitrile]
LC50 (inhalation, Crl:CD(SD) BR): 430 mg/m3 and 446 mg/m3 and 417 mg/m3
LD50 (oral, gavage, Sprague-Dawley): 74 mg/kg

COc1cc(NC(=O)C(N=Nc2ccc(-c3ccc(N=NC(C(C)=O)C(=O)Nc4cc(OC)c(Cl)cc4OC)c(Cl)c3)cc2Cl)C(C)=O)c(OC)cc1Cl (stereo not drawn) [C.I. Pigment Yellow 83]
LD50 (oral, gavage): > 1750 mg/kg
NOAEL (chronic, duration: 104 weeks, oral, gavage, Sprague-Dawley): 630 mg/kg-day

CC(C)N.CCCCCCCCCC(CC)c1ccc(S(=O)(=O)O)cc1 (stereo not drawn) [Isopropylammonium dodecylbenzenesulfonate]
LD50 (oral): 1840 mg/kg
LD50 (oral, gavage, Sprague-Dawley): 1300 mg/kg

Clc1nc(Cl)c(Cl)c(Cl)c1Cl [Pentachloropyridine]
LD50 (oral, gavage, Fischer 344): 435 mg/kg
NOAEL (reproduction developmental, duration: 15 days, oral, gavage, F, Sprague-Dawley): 50 mg/kg-day
LOAEL [3]: 30 mg/kg-day
NOAEL [3]: 10 mg/kg-day
